Tests used:
Assay type in all cases: cell-based
[1] = tested on: endogenous Foxa-2 activity in HepG2 cells; assay: Endogenous Foxa-2 activity in HepG2 cells transfected with reporter construct alone
Experimental: Transfections and Transactivation assay. HepG2 cells were grown to 60-70% confluence in a 24-well dish and transfected with 50 ng of each reporter gene (p6xCdx-TkLuc or pPEPCK-Luc), pCMV-β-Gal as internal reference and the expression vectors for wildtype or mutant Foxa-1 and Foxa-2 and human Akt1/Akt2 using the transfection reagent Fugene6 (Roche). Cells were grown for 48 hours and luciferase activity was measured using the Luciferase Detection System (Promega). Luciferase was normalized for transfection efficiency by β-galactosidase activity. […] To determine whether insulin decreases endogenous Foxa-2 activity in HepG2 cells, cells were transfected with the reporter construct alone and Foxa-2 activity was measured after stimulation with insulin and PI3-kinase or MAPKK1 inhibitors. […] This decrease in activity was ablated when cells were coincubated with Ly294002 but not with PD98059 (FIG. 10b).

Pepck, G6pc and Igfbp-1 = assay: mRNA levels of Foxa-2 target genes in primary hepatocytes (RT-PCR); conditions: insulin alone (50 nM, 6 hours)
Experimental: FIGS. 10a-d depict the effect of insulin on Foxa-2 activity. FIG. 10a is a bar graph depicting relative Foxa-2 activity in HepG2 cells transfected with an expression vector for Foxa-2 and […]-Luc (gray bars) or p6xCdx-TkLuc (black bars). Cells were treated with insulin alone or in the presence of Ly294002 or PD98059. FIG. 10b is a bar graph depicting relative Foxa-2 activity in HepG2 cells transfected with p6xCdx-TkLuc and treated with insulin alone or in the presence of Ly294002 or PD98059. […] FIG. 10d is a bar graph depicting relative Foxa-2 activity in HepG2 cells transfected with an expression vector for Foxa-1, Foxa-2, Akt or Akt[…] alone or in combination, using p6xCdx-TkLuc as reporter gene. In all experiments luciferase activity was normalized to β-Gal activity. […] Levels of mRNA were analyzed to determine whether inhibition of Foxa-2 target gene expression by insulin is controlled at a transcriptional or posttranscriptional level. The mRNA levels of Pepck, G6pc and Igfbp-1 in primary hepatocytes that were cultured either in the presence or absence of insulin, PI3-kinase or MAPKK1 inhibitors were measured.

Foxa-1, 2 and 3 = assay: Expression levels of Foxa-1, 2 and 3 in primary hepatocytes (RT-PCR); conditions: insulin-treated cells

**Q.** What does the source list for “insulin: Insulin was from Sigma; hormone used as stimulus”?
**A.** decrease of Foxa-2 activity ([1]; 500 nM insulin): 80%; Foxa-2 activity, dose dependence ([1]; insulin stimulation): dose-dependent decrease; mRNA levels of Pepck, G6pc and Igfbp-1 (Pepck, G6pc and Igfbp-1): significantly reduced; expression levels of Foxa-1, 2 and 3 (Foxa-1, 2 and 3): did not significantly change

— patent US20070166710A1, “Methods for inhibiting adipogenesis and for treating type 2 diabetes” (priority 2003, published 2007)
